Source: patent US20240150377A1, “MODULATORS OF CYSTIC FIBROSIS TRANSMEMBRANE CONDUCTANCE REGULATOR” (VERTEX PHARMACEUTICALS INCORPORATED, priority 2020, published 2024)
Like-named read-outs stand apart in the source and are kept apart here.

Target: T1, CFTR (Homo sapiens, UniProt P13569, DEL508-508)
T1 construct: endogenous in cells; host or cells: primary human bronchial epithelial cells from CF subjects (F508del/MF-HBE), differentiated at air-liquid interface
Experiment: HBE assay: Ussing chamber assay of CFTR-mediated short-circuit currents
Assay type: cell-based
Conditions: for EC50: read-out: HBE EC50; for activation at 10 µM: read-out: HBE Activity at 10 μM (%)
Summary of the method: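 CFTR-mediated Isc (μA/cm²) equals the peak response to apical 20 μM forskolin minus the residual after a 20 μM each BPO/GlyH-101/CFTR inhibitor 172 cocktail, recorded in Ussing chambers at Vhold 0 mV, 37 °C, pH 7.4, with 30 μM apical amiloride. Cells were F508del/MF HBE cultures preincubated 18-24 h with corrector (concentration range or 10 μM) plus 1 μM ivacaftor in 20% human serum.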

[1] = Table 13, read-out: HBE Max Activity (%)
[2] = HBE assay, read-out: HBE Max activity (%)

T1 sequence (P13569 with tags, fused parts or gaps DEL508-508): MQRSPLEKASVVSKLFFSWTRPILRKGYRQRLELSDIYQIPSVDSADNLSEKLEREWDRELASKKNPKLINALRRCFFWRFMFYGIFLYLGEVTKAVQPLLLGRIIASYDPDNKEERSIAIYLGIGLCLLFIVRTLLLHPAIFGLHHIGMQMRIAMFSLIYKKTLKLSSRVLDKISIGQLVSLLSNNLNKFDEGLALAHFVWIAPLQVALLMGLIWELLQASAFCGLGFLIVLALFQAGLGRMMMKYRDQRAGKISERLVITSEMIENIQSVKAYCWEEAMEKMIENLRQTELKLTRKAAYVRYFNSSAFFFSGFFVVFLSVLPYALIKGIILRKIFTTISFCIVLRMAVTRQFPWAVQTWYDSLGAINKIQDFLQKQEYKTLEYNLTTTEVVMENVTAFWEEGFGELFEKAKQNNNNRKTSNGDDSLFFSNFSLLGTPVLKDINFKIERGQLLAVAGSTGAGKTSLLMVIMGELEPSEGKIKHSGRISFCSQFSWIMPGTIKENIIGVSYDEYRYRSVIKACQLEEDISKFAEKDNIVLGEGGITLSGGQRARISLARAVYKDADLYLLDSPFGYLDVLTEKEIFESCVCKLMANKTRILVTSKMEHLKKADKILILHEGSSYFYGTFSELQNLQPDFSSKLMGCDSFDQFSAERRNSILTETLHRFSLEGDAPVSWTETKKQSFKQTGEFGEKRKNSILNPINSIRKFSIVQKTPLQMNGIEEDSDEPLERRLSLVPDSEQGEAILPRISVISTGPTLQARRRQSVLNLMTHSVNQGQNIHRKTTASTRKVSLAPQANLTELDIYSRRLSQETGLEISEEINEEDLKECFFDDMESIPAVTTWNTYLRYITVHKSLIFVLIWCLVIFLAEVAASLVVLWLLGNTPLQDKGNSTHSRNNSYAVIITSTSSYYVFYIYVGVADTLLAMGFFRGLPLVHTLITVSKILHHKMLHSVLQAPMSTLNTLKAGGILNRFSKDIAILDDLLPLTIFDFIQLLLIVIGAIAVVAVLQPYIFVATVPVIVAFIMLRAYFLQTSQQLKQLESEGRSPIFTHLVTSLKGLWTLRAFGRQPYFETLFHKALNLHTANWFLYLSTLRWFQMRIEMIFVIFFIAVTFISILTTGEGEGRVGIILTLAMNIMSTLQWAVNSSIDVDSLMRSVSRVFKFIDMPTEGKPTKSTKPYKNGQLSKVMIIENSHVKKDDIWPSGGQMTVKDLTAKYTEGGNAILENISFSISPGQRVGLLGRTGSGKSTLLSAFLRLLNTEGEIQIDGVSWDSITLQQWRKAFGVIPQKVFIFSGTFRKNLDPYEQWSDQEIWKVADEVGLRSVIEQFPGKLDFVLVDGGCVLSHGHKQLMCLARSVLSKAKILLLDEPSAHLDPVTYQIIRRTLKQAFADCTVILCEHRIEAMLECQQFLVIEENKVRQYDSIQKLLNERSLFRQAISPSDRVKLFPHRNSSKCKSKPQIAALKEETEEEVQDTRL

Row | Compound | EC50 (Table 13) | Emax [1] | EC50 (HBE assay) | Emax [2] | activation at 10 µM (HBE assay)
1 | Cc1cccc(C)c1-c1cc2nc(n1)NS(=O)(=O)c1cccc(c1)C(=O)N(Cc1nccc(N(C)CC(C)(C)C)c1F)[C@H](CC(C)(C)C)CO2 [Compound 1155] | 1000 to 3000 nM | > 60% | – | – | –
2 | Cc1cccc(C)c1-c1cc2nc(n1)NS(=O)(=O)c1cccc(c1)C(=O)N(Cc1ncc(N3CCOC(C)(C)C3)cn1)[C@H](CC(C)(C)C)CO2 [Compound 1156] | < 1000 nM | > 60% | – | – | –
3 | Cc1cccc(C)c1-c1cc2nc(n1)NS(=O)(=O)c1cccc(c1)C(=O)N(Cc1ncc(OC3CCC3)cc1F)[C@H](CC(C)(C)C)CO2 [Compound 1299, (11R)-12-[[5-(Cyclobutoxy)-3-fluoro-2-pyridyl]methyl]-6-(2,6-dimethylphenyl)-11-(2,2-dimethylpropyl)-2,2-dioxo-9-oxa-2λ^6-thia-3,5,12,19-tetrazatricyclo[12.3.1.14,8]nonadeca-1(18),4(19),5,7,14,16-hexaen-13-one] | – | – | < 1000 nM | > 60% | –
4 | Cc1cccc(C)c1-c1cc2nc(n1)NS(=O)(=O)c1cccc(c1)C(=O)N(Cc1nc(N(C)C3CC4(CC4)C3)ccc1F)[C@H](CC(C)(C)C)CO2 [Compound 1300, (11R)-6-(2,6-Dimethylphenyl)-11-(2,2-dimethylpropyl)-12-[[3-fluoro-6-[methyl(spiro[2.3]hexan-5-yl)amino]-2-pyridyl]methyl]-2,2-dioxo-9-oxa-2λ^6-thia-3,5,12,19-tetrazatricyclo[12.3.1.14,8]nonadeca-1(18),4(19),5,7,14,16-hexaen-13-one] | – | – | < 1000 nM | > 60% | –
5 | Cc1cccc(C)c1-c1cc2nc(n1)NS(=O)(=O)c1cccc(c1)C(=O)N(Cc1ncc(O[C@@H](C)C(C)C)cn1)[C@H](CC(C)(C)C)CO2 [Compound 1301, (11R)-6-(2,6-Dimethylphenyl)-12-[[5-[(1S)-1,2-dimethylpropoxy]pyrimidin-2-yl]methyl]-11-(2,2-dimethylpropyl)-2,2-dioxo-9-oxa-2λ^6-thia-3,5,12,19-tetrazatricyclo[12.3.1.14,8]nonadeca-1(18),4(19),5,7,14,16-hexaen-13-one] | – | – | < 1000 nM | > 60% | –
6 | Cc1cccc(C)c1-c1cc2nc(n1)NS(=O)(=O)c1cccc(c1)C(=O)N(Cc1ccc3c(C4CC4)cn(C)c3n1)[C@H](CC(C)(C)C)CO2 [Compound 1303, (11R)-12-[(3-Cyclopropyl-1-methyl-pyrrolo[2,3-b]pyridin-6-yl)methyl]-6-(2,6-dimethylphenyl)-11-(2,2-dimethylpropyl)-2,2-dioxo-9-oxa-2λ^6-thia-3,5,12,19-tetrazatricyclo[12.3.1.14,8]nonadeca-1(18),4(19),5,7,14,16-hexaen-13-one] | – | – | – | – | > 60%
7 | Cc1cccc(C)c1-c1cc2nc(n1)NS(=O)(=O)c1cccc(c1)C(=O)N(Cc1ncc(OC(C)C)cn1)[C@H](CC(C)(C)F)CO2 [Compound 1308, (11R)-6-(2,6-Dimethylphenyl)-11-(2-fluoro-2-methyl-propyl)-12-[(5-isopropoxypyrimidin-2-yl)methyl]-2,2-dioxo-9-oxa-2λ^6-thia-3,5,12,19-tetrazatricyclo[12.3.1.14,8]nonadeca-1(18),4(19),5,7,14,16-hexaen-13-one] | – | – | – | – | > 60%
8 | Cc1cccc(C)c1-c1cc2nc(n1)NS(=O)(=O)c1cccc(c1)C(=O)N(Cc1ncc(N3CC(C)(C)C3)cn1)[C@H](CCC(C)C)CO2 [Compound 1309, (11R)-12-[[5-(3,3-Dimethylazetidin-1-yl)pyrimidin-2-yl]methyl]-6-(2,6-dimethylphenyl)-11-isopentyl-2,2-dioxo-9-oxa-2λ^6-thia-3,5,12,19-tetrazatricyclo[12.3.1.14,8]nonadeca-1(18),4(19),5,7,14,16-hexaen-13-one] | – | – | – | – | > 60%
9 | COCCN(c1ccc(C)c(CN2C(=O)c3cccc(c3)S(=O)(=O)Nc3nc(cc(-c4c(C)cccc4C)n3)OC[C@H]2CC(C)(C)C)n1)C(C)C [Compound 1343] | – | – | < 1000 nM | > 60% | –
10 | COCC(C)Oc1cnc(CN2C(=O)c3cccc(c3)S(=O)(=O)Nc3nc(cc(-c4c(C)cccc4C)n3)OC[C@H]2CC(C)(C)C)nc1 (stereo partly drawn) [Compound 1344] | – | – | < 1000 nM | > 60% | –
11 | CCC(C)Oc1cnc(CN2C(=O)c3cccc(c3)S(=O)(=O)Nc3nc(cc(-c4c(C)cccc4C)n3)OC[C@H]2CC(C)(C)C)nc1 (stereo partly drawn) [Compound 1345] | – | – | < 1000 nM | > 60% | –
12 | Cc1cccc(C)c1-c1cc2nc(n1)NS(=O)(=O)c1cccc(c1)C(=O)N(Cc1cccc(N(C)C3CCOC3)n1)[C@H](CC(C)(C)C)CO2 (stereo partly drawn) [Compound 1347] | – | – | < 1000 nM | > 60% | –
13 | Cc1cccc(C)c1-c1cc2nc(n1)NS(=O)(=O)c1cccc(c1)C(=O)N(Cc1cncc(NC3CCCC34CCC4)n1)[C@H](CC(C)(C)C)CO2 (stereo partly drawn) [Compound 1348] | – | – | < 1000 nM | > 60% | –
14 | Cc1cccc(C)c1-c1cc2nc(n1)NS(=O)(=O)c1cccc(c1)C(=O)N(Cc1cncc(N(C)C3CCOC3)n1)[C@H](CC(C)(C)C)CO2 (stereo partly drawn) [Compound 1349] | – | – | < 1000 nM | > 60% | –
15 | Cc1cccc(C)c1-c1cc2nc(n1)NS(=O)(=O)c1cccc(c1)C(=O)N(Cc1ncc(OC(C)C)cc1C#N)[C@H](CC(C)(C)C)CO2 [Compound 1351] | – | – | < 1000 nM | > 60% | –
16 | Cc1cccc(C)c1-c1cc2nc(n1)NS(=O)(=O)c1cccc(c1)C(=O)N(Cc1cccc(NC3CCOC3)n1)[C@H](CC(C)(C)C)CO2 (stereo partly drawn) [Compound 1352] | – | – | < 1000 nM | > 60% | –

Results, then the compound that gave them:

Row | EC50 (Table 13) | Emax [1] | EC50 (HBE assay) | Emax [2] | activation at 10 µM (HBE assay) | Compound
17 | – | – | < 1000 nM | > 60% | – | Cc1cccc(C)c1-c1cc2nc(n1)NS(=O)(=O)c1cccc(c1)C(=O)N(Cc1cncc(NC3CCOC3)n1)[C@H](CC(C)(C)C)CO2 (stereo partly drawn) [Compound 1353]
18 | – | – | < 1000 nM | > 60% | – | Cc1cccc(C)c1-c1cc2nc(n1)NS(=O)(=O)c1cccc(c1)C(=O)N(Cc1cccc(N(C)CC3(C)CC3)n1)[C@H](CC(C)(C)C)CO2 [Compound 1354]
19 | – | – | < 1000 nM | > 60% | – | Cc1cccc(C)c1-c1cc2nc(n1)NS(=O)(=O)c1cccc(c1)C(=O)N(Cc1cccc(N(C)C3CCCC3)n1)[C@H](CC(C)(C)C)CO2 [Compound 1355]
20 | – | – | < 1000 nM | > 60% | – | CCN(C)c1ccnc(CN2C(=O)c3cccc(c3)S(=O)(=O)Nc3nc(cc(-c4c(C)cccc4C)n3)OC[C@H]2CC(C)(C)C)n1 [Compound 1357]
21 | – | – | < 1000 nM | > 60% | – | Cc1cccc(C)c1-c1cc2nc(n1)NS(=O)(=O)c1cccc(c1)C(=O)N(Cc1coc(N3CCOCC3)n1)[C@H](CC(C)(C)C)CO2 [Compound 1358]
22 | – | – | < 1000 nM | > 60% | – | Cc1cccc(C)c1-c1cc2nc(n1)NS(=O)(=O)c1cccc(c1)C(=O)N(Cc1ncc(OCC3(C)COC3)cn1)[C@H](CC(C)(C)C)CO2 [Compound 1360]
23 | – | – | – | – | > 60% | Cc1cccc(C)c1-c1cc2nc(n1)NS(=O)(=O)c1cccc(c1)C(=O)N(Cc1ncc3c(n1)CCOC3)[C@H](CC(C)(C)C)CO2 [Compound 1362]
24 | – | – | < 1000 nM | > 60% | – | COCCOc1cnc(CN2C(=O)c3cccc(c3)S(=O)(=O)Nc3nc(cc(-c4c(C)cccc4C)n3)OC[C@H]2CC(C)(C)C)c(F)c1 [Compound 1364]
25 | – | – | < 1000 nM | > 60% | – | Cc1cccc(C)c1-c1cc2nc(n1)NS(=O)(=O)c1cccc(c1)C(=O)N(Cc1ncc(N3CC(C)(C)CC3=O)cn1)[C@H](CC(C)(C)C)CO2 [Compound 1365]
26 | – | – | < 1000 nM | > 60% | – | COCCN(CC(C)(C)C)c1cncc(CN2C(=O)c3cccc(c3)S(=O)(=O)Nc3nc(cc(-c4c(C)cccc4C)n3)OC[C@H]2CC(C)(C)C)n1 [Compound 1367]
27 | – | – | < 1000 nM | > 60% | – | Cc1cccc(C)c1-c1cc2nc(n1)NS(=O)(=O)c1cccc(c1)C(=O)N(Cc1ncc(OC3CCOCC3)cc1F)[C@H](CC(C)(C)C)CO2 [Compound 1368]
28 | – | – | < 1000 nM | > 60% | – | CO[C@H]1C[C@@H](Oc2cnc(CN3C(=O)c4cccc(c4)S(=O)(=O)Nc4nc(cc(-c5c(C)cccc5C)n4)OC[C@H]3CC(C)(C)C)nc2)C1 [Compound 1369]
29 | – | – | < 1000 nM | > 60% | – | Cc1cccc(C)c1-c1cc2nc(n1)NS(=O)(=O)c1cccc(c1)C(=O)N(Cc1ncc(OC3CCC3)cc1F)[C@H](CC(C)C)CO2 [Compound 1370]
30 | – | – | < 1000 nM | > 60% | – | Cc1cccc(C)c1-c1cc2nc(n1)NS(=O)(=O)c1cccc(c1)C(=O)N(Cc1cccc(N(C)C3CCOCC3)n1)[C@H](CC(C)(C)C)CO2 [Compound 1371]
31 | – | – | < 1000 nM | > 60% | – | COCCN(CC(C)C)c1cccc(CN2C(=O)c3cccc(c3)S(=O)(=O)Nc3nc(cc(-c4c(C)cccc4C)n3)OC[C@H]2CC(C)(C)C)n1 [Compound 1372]
32 | – | – | < 1000 nM | > 60% | – | Cc1cc(NC(C)C)cnc1CN1C(=O)c2cccc(c2)S(=O)(=O)Nc2nc(cc(-c3c(C)cccc3C)n2)OC[C@H]1CC(C)(C)C [Compound 1373]
33 | – | – | < 1000 nM | – | – | CCC(C)Oc1cnc(CN2C(=O)c3cccc(c3)S(=O)(=O)Nc3nc(cc(-c4c(C)cccc4C)n3)OC[C@H]2CC(C)(C)C)nc1 (stereo partly drawn) [Compound 1374]
34 | – | – | < 1000 nM | > 60% | – | CC[C@@H](C)Oc1cnc(CN2C(=O)c3cccc(c3)S(=O)(=O)Nc3nc(cc(-c4c(C)cccc4C)n3)OC[C@H]2CC(C)(C)C)nc1 [Compound 1375]
35 | – | – | < 1000 nM | > 60% | – | Cc1cccc(C)c1-c1cc2nc(n1)NS(=O)(=O)c1cccc(c1)C(=O)N(Cc1nc(OCC(C)C)ccc1F)[C@H](CC(C)(C)C)CO2 [Compound 1376]
36 | – | – | < 1000 nM | > 60% | – | Cc1cccc(C)c1-c1cc2nc(n1)NS(=O)(=O)c1cccc(c1)C(=O)N(Cc1ncc(O[C@H](C)C(C)C)cn1)[C@H](CC(C)(C)C)CO2 [Compound 1377]
37 | – | – | < 1000 nM | > 60% | – | Cc1cccc(C)c1-c1cc2nc(n1)NS(=O)(=O)c1cccc(c1)C(=O)N(Cc1ncc(N3CCC(F)(F)C3)cn1)[C@H](CC(C)(C)C)CO2 [Compound 1379]
